Like-named read-outs stand apart in the source and are kept apart here. Peptide text beside a SMILES is read from it.
Key:
CD8+ cells [1] = assay: Intracellular IFN-γ assay by FACS (ICS) on lymphocytes of immunized mice; assay type: in vivo, BALB/c mice; conditions: for immunogenicity of WT counterpart (functional effector T cells): mice immunized with the WT counterpart of the named neo-epitope
Procedure: Intracellular IFN-γ assay by FACS and ELISPOT. Lymphocytes were incubated either with or without 1-10 μg/ml peptide. GolgiPlug (BD Biosciences, San Jose, Calif.) was added 1 h later. After incubation of 12 to 16 h, cells were stained for CD44 (clone IM7), CD4 (clone GK1.5) and CD8 (clone 53-6.7) (BD Biosciences, San Jose, Calif.), fixed and permeabilized using the Cytofix/Cytoperm™ kit (BD Biosciences, San Jose, Calif.), and stained for intracellular IFN-γ using Phycoerythrin-conjugated anti-mouse IFN-γ (clone XMG1.2, BD Biosciences, San Jose, Calif.). Cells were stained with 1 μl antibody/million cells in 50 μl staining buffer (PBS with 1% bovine serum albumin) and incubated for 20 min at 4° C. in the dark, or according to the manufacturer's instructions. Cells without peptide stimulation were used as a negative control, and the values for these controls was very close to the values seen with the negative control peptide. Typically, 95,000-129,000 lymphocytes (14,500-17,000 CD8+CD4− cells) were acquired. The background is consistently very low (10% of the signal).
(§1) All 18 peptides were used to immunize BALB/c mice. The draining lymph nodes (dLNs) of immunized mice were harvested one week after the single immunization, and the cells were stimulated in vitro for 16 h without any added peptide, the mutant peptide used for immunization, or the corresponding wild type peptide. The CD8+ cells were analyzed for activation (CD44+) and effector function (intracellular IFNγ+). (see Materials and Methods regarding the details of FACS analysis.) All possible patterns of immune-reactivity were observed (FIG. 3A): no immune response (12/18), a mutant peptide-specific, i.e. tumor-specific immune response (5/18), and a cross-reactive response between the mutant and corresponding wild type peptides (1/18).

CD8+ cells [2] = assay: IFNγ ELISPOT on CD8+ cells of immunized mice; assay type: in vivo, BALB/c mice; conditions: for ELISpot: mice immunized with mutant peptide; for CD8 T cell response of immunized mice: text, ELISPOT
Procedure: For the ELISPOT assays, the negative controls were CD8+ cells from immunized mice without peptide stimulation. […] The magnitude of responses was rated by mean spot numbers per million CD8+ cells: 5-10 (+); 11-20 (++); 21-50 (+++); 51-100(++++) and >100(+++++).
as §1

CMS5 = assay: Tumor challenge / tumor rejection after peptide immunization, CMS5; assay type: in vivo, BALB/c mice
Procedure: Tumor challenge and representation of tumor growth. AUC as a tool to measure tumor growth has been described previously. Briefly, AUC was calculated by selecting “Curves & Regression” and then “Area under curve” from the “analyze” tool, using the Prism 5.0 (GraphPad Software, Inc., La Jolla, Calif.). Grubb' test was used to remove up to one outlier from each group.
Depletion of T cell subsets. Immunized mice were depleted of CD8 cells using anti-CD8 rat IgG2b monoclonal antibody 2.43), or depleted of CD4 cells using anti-CD4 rat IgG2b monoclonal antibody GK1.5. Depleting antibodies were given in PBS intraperitoneally two days before tumor challenge and every seven days for the duration of the experiment. First three injections of depleting antibodies were 250 μg per mouse and the later injections were 500 μg per mouse. For treatment with antagonistic antibodies, mice were treated with anti-CD25 antibody (clone PC61, 250 μg, two days before tumor challenge) or anti-CTLA-4 antibody (clone 9D9, 100 μg, seven days before and every three days after tumor challenge). The appropriate T cell sub-sets were depleted by over 95%.
Lack of immuno-protective activity of the strongest K^d-binding neo-epitopes. […]

H-2 K^d = target: T1, H-2 K^d (Mus musculus, UniProt P01902); assay: Binding assays: inhibition of binding of a radiolabeled standard peptide to purified MHC molecules
T1 sequence (P01902 22-368): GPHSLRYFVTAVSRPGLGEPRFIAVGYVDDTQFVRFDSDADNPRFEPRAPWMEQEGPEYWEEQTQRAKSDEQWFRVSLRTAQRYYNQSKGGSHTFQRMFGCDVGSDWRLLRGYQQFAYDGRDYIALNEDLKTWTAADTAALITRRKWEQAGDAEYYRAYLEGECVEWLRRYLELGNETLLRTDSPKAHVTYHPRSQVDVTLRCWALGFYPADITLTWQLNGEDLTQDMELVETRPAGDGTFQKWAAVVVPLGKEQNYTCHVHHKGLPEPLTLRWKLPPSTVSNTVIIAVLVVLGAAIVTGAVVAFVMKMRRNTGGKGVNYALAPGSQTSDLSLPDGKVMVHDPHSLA
T1 sequence (P01887 21-119 partner): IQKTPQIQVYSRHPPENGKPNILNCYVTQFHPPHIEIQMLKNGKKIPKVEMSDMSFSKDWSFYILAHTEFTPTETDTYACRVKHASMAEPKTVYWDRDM
Procedure: Binding assays. Binding of peptides to H-2 K^d was determined using quantitative assays based on the inhibition of binding of a radiolabeled standard peptide to purified MHC molecules essentially as described previously. […] Under the conditions utilized, where [label]<[MHC] and IC50≥[MHC], the measured IC50 values are reasonable approximations of the dissociation constant values.

CC(C)[C@H](NC(=O)[C@H](CO)NC(=O)[C@@H](NC(=O)[C@H](CCCCN)NC(=O)[C@H](C)NC(=O)[C@H](CCCCN)NC(=O)[C@H](CO)NC(=O)[C@@H](NC(=O)[C@H](Cc1ccccc1)NC(=O)[C@H](Cc1ccc(O)cc1)NC(=O)CN)C(C)C)[C@@H](C)O)C(=O)O (racemic) [Abr]
immunogenicity of WT counterpart (functional effector T cells) (CD8+ cells [1]): elicited functional effector T cells in vivo

CSCC[C@H](NC(=O)[C@@H]1CCCN1C(=O)[C@@H](NC(=O)[C@H](Cc1ccc(O)cc1)NC(=O)[C@@H](N)CC(=O)O)C(C)C)C(=O)N[C@@H](CCC(=O)O)C(=O)N[C@@H](CCC(N)=O)C(=O)N1CCC[C@H]1C(=O)N[C@@H](CCCNC(=N)N)C(=O)O [Alkbh6.2, D(y/D)VPMEQPR] (H-DYVPMEQPR-OH; N-terminus and C-terminus assumed)
CD8 T cell response by intracellular cytokine assay (CD8+ cells [1]): un-detectable by the intracellular cytokine assay | ELISpot (CD8+ cells [2]): ++ (10-20 spots/10^6 CD8 = ++) | CD8 T cell response of immunized mice (CD8+ cells [2]): modest CD8 T cell response | protection from tumor growth / tumor rejection (CMS5): representative neo-epitopes that do

CC(C)C[C@H](NC(=O)[C@H](Cc1ccc(O)cc1)NC(=O)[C@@H](N)CC(C)C)C(=O)N[C@@H](CC(=O)O)C(=O)N[C@@H](CO)C(=O)N[C@@H](CCCCN)C(=O)N[C@@H](CO)C(=O)N[C@@H](CC(=O)O)C(=O)N[C@H](C(=O)N[C@H](C(=O)N[C@H](C(=O)O)C(C)C)[C@@H](C)O)[C@@H](C)O [Alms1.1]
immunogenicity of WT counterpart (functional effector T cells) (CD8+ cells [1]): elicited functional effector T cells in vivo

CC(C)C[C@H](NC(=O)[C@@H]1CCCN1C(=O)[C@@H](NC(=O)[C@H](CCCNC(=N)N)NC(=O)[C@H](CCCCN)NC(=O)[C@H](CC(C)C)NC(=O)[C@H](CC(C)C)NC(=O)[C@@H]1CCCN1C(=O)[C@@H](NC(=O)[C@H](Cc1ccc(O)cc1)NC(=O)[C@@H](N)Cc1ccc(O)cc1)C(C)C)C(C)C)C(=O)O [Alms1.2] (H-YYVPLLKRVPL-OH)
IC50 (H-2 K^d): 1480 nM | IC50 (H-2 K^d; mutant peptide, read-out: Measured IC50 for K^d (Mut/WT): Mut): 421 nM | immunogenicity of WT counterpart (functional effector T cells) (CD8+ cells [1]): elicited functional effector T cells in vivo | ELISpot (CD8+ cells [2]): ++ (10-20 spots/10^6 CD8 = ++)

CSCC[C@H](NC(=O)[C@H](CC(C)C)NC(=O)CNC(=O)[C@@H]1CCCN1C(=O)[C@H](Cc1ccccc1)NC(=O)[C@@H](NC(=O)[C@@H](N)CCC(N)=O)C(C)C)C(=O)N[C@@H](CCC(=O)O)C(=O)N[C@@H](CC(C)C)C(=O)O [Atxn10.1] (H-QVFPGLMEL-OH; N-terminus and C-terminus assumed)
IC50 (H-2 K^d; WT counterpart peptide, read-out: Measured IC50 for K^d (Mut/WT): WT): 7050 nM | CD8 T cell response by intracellular cytokine assay (CD8+ cells [1]): un-detectable by the intracellular cytokine assay | ELISpot (CD8+ cells [2]): +++ (21-50 spots/10^6 CD8 = +++) | CD8 T cell response of immunized mice (CD8+ cells [2]): modest CD8 T cell response | protection from tumor growth / tumor rejection (CMS5): representative neo-epitopes that do

CC[C@H](C)[C@H](NC(=O)[C@H](Cc1ccc(O)cc1)NC(=O)[C@@H](N)[C@@H](C)O)C(=O)N[C@@H](CCCNC(=N)N)C(=O)N1CCC[C@H]1C(=O)N[C@@H](Cc1ccccc1)C(=O)N[C@@H](CCC(=O)O)C(=O)N[C@H](C(=O)N[C@@H](CCCCN)C(=O)N[C@H](C(=O)O)C(C)C)[C@@H](C)O [Ccdc85c, TYIRP(f/L)ETKV] (H-TYIRPFETKV-OH)
immunogenicity of WT counterpart (functional effector T cells) (CD8+ cells [1]): elicited functional effector T cells in vivo

SIINFEKL (listed as Gallus gallus) [reference compound]
CD8 response after second immunization (Prime vs Boost) (CD8+ cells [1]; 100 μg peptide once or twice with a 29-day interval): amplified by a second immunization

Reference: patent US11338026B2, “Identification of immunologically protective neo-epitopes for the treatment of cancers” (THE UNIVERSITY OF CONNECTICUT, priority 2014, dated 2022)
